Results taken from patent US4112228A, “7-(D-α-Hydroxy-2-arylacetamido)-3-(2-carboxyalkyl-2,3-dihydro-s-tri azolo-[4,3-b]pyridazin-3-on-6-ylthiomethyl)-3-cephem-4-carboxylic acids and derivatives” (priority 1977, dated 1978).
In brackets after ≈: the same amount, converted by molar mass. Like-named read-outs stand apart in the source and are kept apart here.

What was measured:
E. coli = experiment: MIC by Steers' agar dilution method; format: cell-based; conditions: Escherichia coli, read-out: MIC
Serr. marcescens = experiment: MIC by Steers' agar dilution method; conditions: Serratia marcescens
Ps. aeruginosa = experiment: MIC by Steers' agar dilution method; conditions: Pseudomonas aeruginosa
bacteria of Table 4 = experiment: Media effect on MIC (Nutrient, Mueller-Hinton, Heart-Infusion agar); format: cell-based; conditions: NA, MHA, HIA
S. typhimurium = experiment: MIC by Steers' agar dilution method; conditions: Salmonella enterica
D. pneumoniae = experiment: MIC by Steers' agar dilution method
S. pyogenes = experiment: MIC by Steers' agar dilution method
Sal. enteritidis = experiment: MIC by Steers' agar dilution method; conditions: Salmonella enterica

O=C(O)Cn1nc2ccc(SCC3=C(C(=O)O)N4C(=O)C(NC(=O)[C@H](O)c5ccccc5)[C@H]4SC3)nn2c1=O (stereo partly drawn) [BB-S488, 7-(D-Mandelamido)-3-(2-carboxymethyl-2,3-dihydro-s-triazolo[4,3-b]pyridazin-3-on-6-ylthiomethyl)-3-cephem-4-carboxylic Acid]
MIC (E. coli; Ec-46 A15164 (β-lactamase), HIA, Table 4): > 100 µg/mL | MIC (E. coli; Ec-46 A15164 (β-lactamase), MHA, Table 4): 100 µg/mL (≈ 175 µM) | MIC (E. coli; Ec-46 A15164 (β-lactamase), NA, Table 4): 50 µg/mL (≈ 87.3 µM) | MIC (E. coli; Ec-46 A15164, MHA, Table 3): 25 µg/mL (≈ 43.7 µM) | MIC (E. coli; Ec-47 A15170, MHA, Table 3): 100 µg/mL (≈ 175 µM) | MIC (E. coli; Ec-49 A20107, MHA, Table 3): 0.4 µg/mL (≈ 0.699 µM) | MIC (E. coli; Ec-50 A20109, MHA, Table 3): 0.2 µg/mL (≈ 0.349 µM) | MIC (E. coli; Ec-51 A20343 (β-lactamase), HIA, Table 4): > 100 µg/mL | MIC (E. coli; Ec-51 A20343 (β-lactamase), MHA, Table 4): > 100 µg/mL | MIC (E. coli; Ec-51 A20343 (β-lactamase), NA, Table 4): 50 µg/mL (≈ 87.3 µM) | MIC (E. coli; Ec-51 A20343, MHA, Table 3): 50 µg/mL (≈ 87.3 µM) | MIC (E. coli; Ec-56 A20365, MHA, Table 3): 25 µg/mL (≈ 43.7 µM) | MIC (E. coli; Ec-58 A9675, MHA, Table 3): 0.4 µg/mL (≈ 0.699 µM) | MIC (E. coli; Ec-59 A20766, MHA, Table 3): 0.2 µg/mL (≈ 0.349 µM) | MIC (E. coli; Ec-62 A20895, MHA, Table 3): 0.4 µg/mL (≈ 0.699 µM) | MIC (E. coli; Juhl A15119, MHA, Table 1): 0.2 µg/mL (≈ 0.349 µM) | MIC (E. coli; Juhl, MHA, Example 10): 0.2 µg/mL (≈ 0.349 µM) | MIC (E. coli; NIHJ, MHA, Example 10): 0.2 µg/mL (≈ 0.349 µM) | MIC (E. coli; NIHJ, MHA, Table 1): 0.025 µg/mL (≈ 0.0437 µM) | MIC (E. coli; strain not named (1st of 3), MHA, Example 10): 0.1 µg/mL (≈ 0.175 µM) | MIC (E. coli; strain not named (2nd of 3), MHA, Example 10): 0.05 µg/mL (≈ 0.0873 µM) | MIC (E. coli; strain not named (3rd of 3), MHA, Example 10): 3.1 µg/mL (≈ 5.41 µM) | MIC (Serr. marcescens; A20019, MHA, Table 1): 100 µg/mL (≈ 175 µM) | MIC (Serr. marcescens; MHA, Example 10): > 100 µg/mL | MIC (Serr. marcescens; Sm-1 A20019 (β-lactamase), HIA, Table 4): > 100 µg/mL | MIC (Serr. marcescens; Sm-1 A20019 (β-lactamase), MHA, Table 4): > 100 µg/mL | MIC (Serr. marcescens; Sm-1 A20019 (β-lactamase), NA, Table 4): > 100 µg/mL | MIC (Serr. marcescens; Sm-1 A20019, MHA, Table 3): 25 µg/mL (≈ 43.7 µM) | MIC (Serr. marcescens; Sm-2 A20335, MHA, Table 3): 3.1 µg/mL (≈ 5.41 µM) | MIC (Serr. marcescens; Sm-3 A20336, HIA, Table 4): > 100 µg/mL | MIC (Serr. marcescens; Sm-3 A20336, MHA, Table 3): 6.3 µg/mL (≈ 11 µM) | MIC (Serr. marcescens; Sm-3 A20336, MHA, Table 4): 0.8 µg/mL (≈ 1.4 µM) | MIC (Serr. marcescens; Sm-3 A20336, NA, Table 4): 100 µg/mL (≈ 175 µM) | MIC (Serr. marcescens; Sm-4 A20442, MHA, Table 3): 6.3 µg/mL (≈ 11 µM) | MIC (Serr. marcescens; Sm-5 A20222, MHA, Table 3): 3.1 µg/mL (≈ 5.41 µM) | MIC (Serr. marcescens; Sm-6 A20460, MHA, Table 3): 6.3 µg/mL (≈ 11 µM) | MIC (Serr. marcescens; Sm-9 A20333, MHA, Table 3): 6.3 µg/mL (≈ 11 µM) | MIC (Serr. marcescens; Sm-10 A20334, MHA, Table 3): 6.3 µg/mL (≈ 11 µM) | MIC (Serr. marcescens; Sm-11 A20459, MHA, Table 3): 6.3 µg/mL (≈ 11 µM) | MIC (Serr. marcescens; Sm-12 A20461, MHA, Table 3): 6.3 µg/mL (≈ 11 µM) | MIC (Ps. aeruginosa; A9843, MHA, Table 1): > 100 µg/mL | MIC (Ps. aeruginosa; A9930, MHA, Table 1): > 100 µg/mL | MIC (Ps. aeruginosa; Pa-3 A9930, HIA, Table 4): > 100 µg/mL | MIC (Ps. aeruginosa; Pa-3 A9930, MHA, Table 4): > 100 µg/mL | MIC (Ps. aeruginosa; Pa-3 A9930, NA, Table 4): 100 µg/mL (≈ 175 µM) | MIC (Ps. aeruginosa; strain not given (1st of 2), MHA, Example 10): > 100 µg/mL | MIC (Ps. aeruginosa; strain not named (2nd of 2), MHA, Example 10): > 100 µg/mL | Media effect on MIC (bacteria of Table 4): little media effect | MIC (S. typhimurium): 0.1 µg/mL (≈ 0.175 µM) | MIC (D. pneumoniae; Dp-2 Type I Neufeld, MHA, Table 2): 0.2 µg/mL (≈ 0.349 µM) | MIC (D. pneumoniae; Dp-3 Type III, MHA, Table 2): 0.2 µg/mL (≈ 0.349 µM) | MIC (D. pneumoniae; Dp-4 A9585, MHA, Table 2): 0.2 µg/mL (≈ 0.349 µM) | MIC (D. pneumoniae; Dp-5 A15069, MHA, Table 2): 0.2 µg/mL (≈ 0.349 µM) | MIC (D. pneumoniae; Dp-6 A20167, MHA, Table 2): 0.2 µg/mL (≈ 0.349 µM) | MIC (D. pneumoniae; Dp-7 A20759, MHA, Table 2): 0.2 µg/mL (≈ 0.349 µM) | MIC (D. pneumoniae; Dp-8 A20769, MHA, Table 2): 0.2 µg/mL (≈ 0.349 µM) | MIC (D. pneumoniae; Dp-9 A20770, MHA, Table 2): 0.2 µg/mL (≈ 0.349 µM) | MIC (D. pneumoniae; Streptococcus pneumoniae): 0.2 µg/mL (≈ 0.349 µM) | MIC (S. pyogenes): 0.2 µg/mL (≈ 0.349 µM) | MIC (S. pyogenes; Sp-2 Dick, MHA, Table 2): 0.4 µg/mL (≈ 0.699 µM) | MIC (S. pyogenes; Sp-3 A9604, MHA, Table 2): 0.4 µg/mL (≈ 0.699 µM) | MIC (S. pyogenes; Sp-5 A15040, MHA, Table 2): 0.4 µg/mL (≈ 0.699 µM) | MIC (S. pyogenes; Sp-6 A20066, MHA, Table 2): 0.4 µg/mL (≈ 0.699 µM) | MIC (S. pyogenes; Sp-7 Dig 7, MHA, Table 2): 0.4 µg/mL (≈ 0.699 µM) | MIC (S. pyogenes; Sp-8 A15041, MHA, Table 2): 0.4 µg/mL (≈ 0.699 µM) | MIC (S. pyogenes; Sp-9 A20201, MHA, Table 2): 0.4 µg/mL (≈ 0.699 µM) | MIC (S. pyogenes; Sp-10 A20202, MHA, Table 2): 0.4 µg/mL (≈ 0.699 µM) | MIC (S. pyogenes; Streptococcus pyogenes): 0.4 µg/mL (≈ 0.699 µM) | MIC (Sal. enteritidis; A9531, MHA, Table 1): 0.05 µg/mL (≈ 0.0873 µM) | MIC (Sal. enteritidis; MHA, Example 10): 0.025 µg/mL (≈ 0.0437 µM) | MIC (Sal. enteritidis; Se-1 A9531, MHA, Table 3): 0.1 µg/mL (≈ 0.175 µM)
